Reference: patent publication US20050014811A1, “Substituted benzimidazole compounds and their use for the treatment of cancer” (Aventis Pharma S.A., priority 2001, published 2005)

How the values were obtained:
CDK2/CyclinE = CDK2/CyclinE (Homo sapiens, UniProt P24941); assay: CDK2/CyclinE Flashplate assay, 96-well format, biotinylated-Rb peptide substrate; assay type: biochemical
Procedure: This is a CDK2/CyclinE kinase assay in a 96-well Streptavidin-coated Flashplate with a biotinylated-Rb peptide substrate.
(§1) Each point is tested in duplicate
Biotinylated-Rb: Biotin-[…]-OH
• 1. Prepare substrate: 1 mg/ml solution made fresh in PBS. • 2. Add 4 μg per well to the Flashplate. • 3. Incubate for 2 hours at RT. • 4. From 10 mM inhibitor stocks in DMSO, make 1 mM, 300 μM, 100 μM, 30 μM and 10 μM series of dilution in DMSO. • 5. Was the Flashplate 3 times with 300 μl PBS to remove unbound peptide substrate. • 6. Add the CDK2/CyclinE kinase: 200 ng per well, in a volume of 90 μl in kinase buffer (except for “no enzyme” control wells). • 7. Add 1 μl per well of inhibitor to test 10 μM, 3 μM, 1 μM, 0.3 μM and 0.1 μM in final concentration per 100 μl in each well. • 8. Shake gently the Flashplate 1 minute. • 9. Incubate 30 minutes on wet ice. • 10. Initiate the reaction with 10 μl kinase buffer containing 1 μM final cold ATP and 1 μCi final ^33P-ATP per well. • 11. Shake gently the Flashplate 1 minute. • 12. Incubate 45 minutes at RT (no shaking). • 13. Wash the Flashplate 3 times with 300 μl PBS
14. Count to detect the incorporation of ^33P-ATP by the kinase to the Rb phosphorylation site.

CDK4/CyclinD1 = CDK4/CyclinD1 (Homo sapiens, UniProt P11802); assay: CDK4/CyclinD1 Flashplate assay, 96-well format, biotinylated-Rb peptide substrate; assay type: biochemical
Sequence of CDK4/CyclinD1 (P11802 whole entry, species assumed): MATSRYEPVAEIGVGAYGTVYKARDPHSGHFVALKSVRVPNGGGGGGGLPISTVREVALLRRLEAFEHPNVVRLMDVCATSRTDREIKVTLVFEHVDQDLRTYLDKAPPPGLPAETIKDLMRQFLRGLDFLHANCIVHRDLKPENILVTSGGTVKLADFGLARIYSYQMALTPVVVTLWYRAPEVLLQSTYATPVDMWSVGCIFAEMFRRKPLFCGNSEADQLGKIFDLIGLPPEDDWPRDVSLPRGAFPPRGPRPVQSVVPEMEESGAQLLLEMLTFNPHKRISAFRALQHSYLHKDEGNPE
Sequence of CDK4/CyclinD1 (P24385 whole entry partner, species assumed): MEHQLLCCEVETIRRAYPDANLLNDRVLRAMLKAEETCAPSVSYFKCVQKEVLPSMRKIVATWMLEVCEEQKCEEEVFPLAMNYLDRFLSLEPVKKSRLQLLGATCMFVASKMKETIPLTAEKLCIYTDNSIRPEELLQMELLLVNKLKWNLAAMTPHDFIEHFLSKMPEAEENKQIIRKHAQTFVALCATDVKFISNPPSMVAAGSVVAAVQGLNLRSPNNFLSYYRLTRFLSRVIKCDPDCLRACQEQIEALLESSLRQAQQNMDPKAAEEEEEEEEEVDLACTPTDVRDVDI
Procedure: This is a CDK4/CyclinD1 kinase assay in a 96-well Streptavidin-coated Flashplate with a biotinylated-Rb peptide substrate.
as §1
Biotinylated-Rb: Biotin-[…]
• 1. Prepare substrate: 1 mg/ml solution made fresh in PBS. • 2. Add 100 μg per well to the Flashplate. • 3. Incubate for 2 hours at RT. • 4. From 10 mM inhibitor stocks in DMSO, make 1 mM, 300 μM, 100 μM, 30 μM and 10 μM series of dilution in DMSO. • 5. Wash the Flashplate 3 times with 300 μl PBS to remove unbound peptide substrate. • 6. Add the CDK4/CyclinD1 kinase: 70 ng per well, in a volume of 90 μl in kinase buffer (except for “no enzyme” control wells). • 7. Add 1 μl^1 per well of inhibitor to test 10 μM, 3 μM, 1 μM, 0.3 μM and 0.1 μM in final concentration per 100 μl in each well. • 8. Shake gently the Flashplate 1 minute. • 9. Incubate 30 minutes on wet ice. • 10. Initiate the reaction with 10 μl kinase buffer containing 1 μM final cold ATP and 1 μCi final ^33P-ATP per well. • 11. Shake gently the Flashplate 1 minute. • 12. Incubate 45 minutes at RT (no shaking). • 13. Wash the Flashplate 3 times with 300 μl PBS • 14. Count to detect the incorporation of ^33P-ATP by the kinase to the Rb phosphorylation site.

| IC50 (CDK4/CyclinD1) [µM] | Structure (SMILES) | further results |
| --- | --- | --- |
| 1 | CCOc1ccc(S(=O)(=O)Oc2ccc3nc(NC(=O)OC)[nH]c3c2)cc1 [Example 64-a, 4-Ethoxy-benzenesulfonic acid 2-methoxycarbonylamino-3H-benzoimidazol-5-yl ester] |  |
| 1.75 | COC(=O)Nc1nc2cc(OS(=O)(=O)c3ccc(C#N)cc3)ccc2[nH]1 [Example 62-s, 4-Cyano-benzenesulfonic acid 2-methoxycarbonylamino-1H-benzoimidazol-5-yl ester] |  |
| 1 | COCC(C)Nc1ccc(S(=O)(=O)Oc2ccc3[nH]c(NC(=O)C4CC4)nc3c2)cc1 (centres unmarked) [Example 60-f, 4-(2-Methoxy-1-methyl-ethylamino)-benzenesulfonic acid 2-(cyclopropanecarbonyl-amino)-1H-benzoimidazol-5-yl ester] |  |
| 1 | O=C(O)[C@@H]1CCCN1C(=O)Nc1nc2cc(OS(=O)(=O)c3ccc(NC4CCCC4)cc3)ccc2[nH]1 [Example 58-q, 1-[5-(4-Cyclopentylamino-benzenesulfonyloxy)-1H-benzoimidazol-2S-ylcarbamoyl]-pyrrolidine-2-carboxylic acid] |  |
| 0.4 | CC(C)(CO)CNc1ccc(S(=O)(=O)Oc2ccc3[nH]c(NC(=O)C4CC4)nc3c2)cc1 [Example 60-l, 4-(3-Hydroxy-2,2-dimethyl-propylamino)-benzenesulfonic acid 2-(cyclopropanecarbonyl-amino)-1H-benzoimidazol-5-yl ester] |  |
| 1.1 | COC(=O)Nc1nc2cc(OS(=O)(=O)c3ccc(NC(C)CO)cc3)ccc2[nH]1 (centres unmarked) [Example 8, Methyl-5-(4-[1-methyl,2-hydroxyethyl]aminophenyl-sulfonyloxy) benzimidazole-2-carbamate] |  |
| 0.5 | O=C(Nc1nc2cc(OS(=O)(=O)c3ccc(NCCNc4ccccc4)cc3)ccc2[nH]1)C1CC1 [Example 60-w, 4-(2-Phenylamino-ethylamino)-benzenesulfonic acid 2-(cyclopropanecarbonyl-amino)-1H-benzoimidazol-5-yl ester] |  |
| 2.23 | CCC(C)(C)NC(=O)Nc1nc2cc(OS(=O)(=O)c3ccc(NC4CCCC4)cc3)ccc2[nH]1 [Example 58-z, 4-Cyclopentylamino-benzenesulfonic acid 2-[3-(1,1-dimethyl-propyl)-ureido]-1H-benzoimidazol-5-yl ester] |  |
| 0.55 | O=C(Nc1nc2cc(OS(=O)(=O)c3ccc(NC4CCC4)cc3)ccc2[nH]1)C1CC1 [Example 60-ah, 4-Cyclobutylamino-benzenesulfonic acid 2-(cyclopropanecarbonyl-amino)-1H-benzoimidazol-5-yl ester] |  |
| 4.37 | COCCOc1ccc(S(=O)(=O)Oc2ccc3nc(NC(=O)OC)[nH]c3c2)cc1 [Example 64-c, 4-(2-Methoxy-ethoxy)-benzenesulfonic acid 2-methoxycarbonylamino-3H-benzoimidazol-5-yl ester] |  |
| 1.5 | O=C(Nc1nc2cc(OS(=O)(=O)c3ccc(NCCN4CCCC4)cc3)ccc2[nH]1)C1CC1 [Example 60-g, 4-(2-Pyrrolidin-1-yl-ethylamino)-benzenesulfonic acid 2-(cyclopropanecarbonyl-amino)-1H-benzoimidazol-5-yl ester] |  |
| 2 | CN1CCN(CCCNc2ccc(S(=O)(=O)Oc3ccc4[nH]c(NC(=O)C5CC5)nc4c3)cc2)CC1 [Example 60-n, 4-[3-(4-Methyl-piperazin-1-yl)-propylamino]-benzenesulfonic acid 2-(cyclopropanecarbonyl-amino)-1H-benzoimidazol-5-yl ester] |  |
| 0.34 | O=C(Nc1nc2cc(OS(=O)(=O)c3ccc(NCCO)cc3)ccc2[nH]1)C1CC1 [Example 60-c, 4-(2-Hydroxy-ethylamino)-benzenesulfonic acid 2-(cyclopropanecarbonyl-amino)-1H-benzoimidazol-5-yl ester] |  |

Further lines, the compound ahead of its results:

| Structure (SMILES) | IC50 (CDK4/CyclinD1) [µM] | further results |
| --- | --- | --- |
| COC(=O)Nc1nc2cc(OS(=O)(=O)c3ccsc3C(=O)OC)ccc2[nH]1 [Example 62-j, 3-(2-Methoxycarbonylamino-1H-benzoimidazol-5-yloxysulfonyl)-thiophene-2-carboxylic acid methyl ester] |  | IC50 (CDK2/CyclinE): 1.5 µM |
| COC(=O)Nc1nc2cc(OS(=O)(=O)c3ccc(-c4ccon4)s3)ccc2[nH]1 [Example 62-c, 5-Isoxazol-3-yl-thiophene-2-sulfonic acid 2-methoxycarbonylamino-1H-benzoimidazol-5-yl ester] |  | IC50 (CDK2/CyclinE): 0.8 µM |
| COCCNC(=O)Nc1nc2cc(OS(=O)(=O)c3ccc(NCC4CCNCC4)cc3)ccc2[nH]1 [Example 78-v, 4-[(Piperidin-4-ylmethyl)-amino]-benzenesulfonic acid 2-[3-(2-methoxy-ethyl)-ureido]-1H-benzoimidazol-5-yl ester] |  | inhibition at 10 µM (CDK4/CyclinD1): 46% |
| COCCNc1ccc(S(=O)(=O)Oc2ccc3[nH]c(NC(=O)NCCN4CCOCC4)nc3c2)cc1 [Example 78-e, 4-(2-Methoxy-ethylamino)-benzenesulfonic acid 2-[3-(2-morpholin-4-yl-ethyl)-ureido]-1H-benzoimidazol-5-yl ester] | 0.6 |  |
| COC(=O)Nc1nc2cc(OS(=O)(=O)c3cccc([N+](=O)[O-])c3)ccc2[nH]1 [Example 62-l, 3-Nitro-benzenesulfonic acid 2-methoxycarbonylamino-1H-benzoimidazol-5-yl ester] | 2.5 |  |
| O=S(=O)(Oc1ccc2[nH]c(Nc3ccccc3)nc2c1)c1ccc(NC2CCCC2)cc1 [Example 70-a, 4-Cyclopentylamino-benzenesulfonic acid 2-phenylamino-1H-benzoimidazol-5-yl ester] | 1.18 |  |
| O=C(Nc1nc2cc(OS(=O)(=O)c3ccc(NC4CCC(O)CC4)cc3)ccc2[nH]1)C1CC1 (centres unmarked) [Example 60-p, 4-(4-Hydroxy-cyclohexylamino)-benzenesulfonic acid 2-(cyclopropanecarbonyl-amino)-1H-benzoimidazol-5-yl ester] | 1.2 |  |
| CNc1ccc(S(=O)(=O)Oc2ccc3[nH]c(NC(=O)C4CC4)nc3c2)cc1 [Example 60-b, 4-Methylamino-benzenesulfonic acid 2-(cyclopropanecarbonyl-amino)-1H-benzoimidazol-5-yl ester] | 0.15 |  |
| NC(=O)C1CCCN1C(=O)Nc1nc2cc(OS(=O)(=O)c3ccc(NC4CCCC4)cc3)ccc2[nH]1 (stereo not drawn) [Example 58-ae, 4-Cyclopentylamino-benzenesulfonic acid 2-[(2S-carbamoyl-pyrrolidine-1-carbonyl)-amino]-1H-benzoimidazol-5-yl ester] | 1.49 |  |
| Nc1nc2cc(OS(=O)(=O)c3ccc(NC4CCCC4)cc3)ccc2[nH]1 [Example 22, 5-(4-cyclopentylaminophenylsulfonyloxy)-1H-benzimidazole-2-ylamine] | 1.77 |  |
| CCNC(=O)Nc1nc2cc(OS(=O)(=O)c3ccc(NC(C)CO)cc3)ccc2[nH]1 (centres unmarked) [Example 78-l, 4-(2-Hydroxy-1-methyl-ethylamino)-benzenesulfonic acid 2-[3-(2-ethyl)-ureido]-1H-benzoimidazol-5-yl ester] |  | inhibition at 10 µM (CDK4/CyclinD1): 100% |
| O=C(NCc1ccccn1)Nc1nc2cc(OS(=O)(=O)c3ccc(OCc4ccccc4)cc3)ccc2[nH]1 [Example 78-n] |  | inhibition of CDK4/cyclinD1 at 10 μM (CDK4/CyclinD1; at 10 μM): 54% inhibition at 10 μM |
| COC(=O)Nc1nc2cc(OS(=O)(=O)c3cccc(F)c3)ccc2[nH]1 [Example 62-r, 3-Fluoro-benzenesulfonic acid 2-methoxycarbonylamino-1H-benzoimidazol-5-yl ester] | 2.5 |  |
| CCOC(=O)C1CCN(C(=O)Nc2nc3cc(OS(=O)(=O)c4ccc(NC5CCCC5)cc4)ccc3[nH]2)CC1 [Example 58-t, 1-[5-(4-Cyclopentylamino-benzenesulfonyloxy)-1H-benzoimidazol-2-yl-carbamoyl]-piperidine-4-carboxylic acid ethyl ester] | 9 |  |
| COCCNC(=O)Nc1nc2cc(OS(=O)(=O)c3ccc(NCCN4CCOCC4)cc3)ccc2[nH]1 [Example 78-s, 4-(2-Morpholin-4-yl-ethylamino)-benzenesulfonic acid 2-[3-(2-methoxy-ethyl)-ureido]-1H-benzoimidazol-5-yl ester] |  | inhibition at 10 µM (CDK4/CyclinD1): 88% |
| O=C(Nc1nc2cc(OS(=O)(=O)c3ccc(NCCCCO)cc3)ccc2[nH]1)C1CC1 [Example 60-e, 4-(4-Hydroxy-butylamino)-benzenesulfonic acid 2-(cyclopropanecarbonyl-amino)-1H-benzoimidazol-5-yl ester] | 0.9 |  |
